From patent publication US4916069A, “Enzyme and process for producing the same” (priority 1986, dated 1990)

What was measured:
Type in all cases: biochemical, Gluconobacter oxydans UV-10
L-sorbose dehydrogenase [1] = molecular target: T1, L-sorbose dehydrogenase (Gluconobacter oxydans, UniProt Q47944); settings: 0.1 ml of 1M substrate solution instead of L-sorbose, DCIP, 25° C., pH 7.0
Procedure: (§1) Enzyme assay was performed at 25° C. by measuring the decrease of absorbance at 600 nm of DCIP spectrophotometrically. One unit of enzyme activity was defined as the amount of enzyme which catalyzed the reduction of 1 μmole of DCIP per minute. The extinction coefficient of DCIP at pH 7.0 was taken as 14.5 mM^-1. The basal reaction mixture is shown below. The mixture was prepared just before the assay.
(§2) A cuvette with 1 cm light path contained 0.4 ml of basal mixture, 0.1 ml of 1M L-sorbose, enzyme solution, and water in a final volume of 0.51 ml. A reference cuvette contains all components except the substrate. The reaction was initiated by the addition of the substrate. Enzyme activity was measured as the initial reduction rate of DCIP.
Substrate specificity of the enzyme was determined using the same enzyme assay method as described in the above (1) except that 0.1 ml of each of the various substrate solutions (1M) was used instead of L-sorbose.

L-sorbose dehydrogenase [2] = molecular target: T1, L-sorbose dehydrogenase; experiment: Effect of metal ions on the enzyme activity; settings: for Effect of metal ion on the enzyme activity (in words): summary of Table 6
Procedure: as §1, §2
Using the assay procedure described under (1) above, the effect of various metal ions on the enzyme activity was examined. Co^2+ and Fe^3+ were stimulative and Cu^2+ was inhibitory.

L-sorbose dehydrogenase [3] = molecular target: T1, L-sorbose dehydrogenase; experiment: biochemical; settings: for Effect of inhibitor on the enzyme activity (in words): summary of Table 7
Procedure: as §1, with “The extinction coefficient of DCIP at pH 7.0 was taken as 14.5 mM^-1.” left out
as §2

L-sorbose dehydrogenase [4] = molecular target: T1, L-sorbose dehydrogenase; experiment: Measurement of the Km value for L-sorbose; settings: L-sorbose 0.5 mM to 320 mM
Procedure: as §1, §2
In the procedure described under (2) above, the velocities of oxidising reactions with varying concentrations of L-sorbose from 0.5 mM to 320 mM were measured to determine the Km value for L-sorbose. The maximum reaction velocity was found at the substrate concentration of about 200 mM. Apparent Michaelis constant (Km) was calculated to be 102±10 mM with DCIP as an electron acceptor.

T1 sequence (Q47944 whole entry): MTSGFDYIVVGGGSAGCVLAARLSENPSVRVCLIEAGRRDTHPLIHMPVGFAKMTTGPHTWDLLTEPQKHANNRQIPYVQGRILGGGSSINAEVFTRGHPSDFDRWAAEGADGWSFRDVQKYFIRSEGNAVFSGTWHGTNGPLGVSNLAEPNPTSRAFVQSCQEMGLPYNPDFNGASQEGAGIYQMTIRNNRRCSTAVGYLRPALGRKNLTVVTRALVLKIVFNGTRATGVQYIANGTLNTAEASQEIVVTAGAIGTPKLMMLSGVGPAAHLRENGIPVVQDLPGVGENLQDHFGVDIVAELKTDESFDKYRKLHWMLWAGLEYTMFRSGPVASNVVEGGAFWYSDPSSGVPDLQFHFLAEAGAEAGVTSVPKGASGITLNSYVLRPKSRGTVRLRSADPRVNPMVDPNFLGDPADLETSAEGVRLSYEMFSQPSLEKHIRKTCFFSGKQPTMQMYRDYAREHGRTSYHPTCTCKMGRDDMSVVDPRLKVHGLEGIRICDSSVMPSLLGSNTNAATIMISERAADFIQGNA

For `O=C([O-])[C@@H](O)[C@H](O)[C@@H](O)[C@H](O)CO.O=C([O-])[C@@H](O)[C@H](O)[C@@H](O)[C@H](O)CO.[Ca+2]` [Ca-Idonate], the “Relative enzyme activity (%)” value (L-sorbose dehydrogenase [1]) was 0%.

With `[Ca+2].[Cl-].[Cl-]` [CaCl2] the “Relative activity (%)” value (L-sorbose dehydrogenase [2]; metal 0.4 mM) was 100% and the “Relative activity (%)” value (L-sorbose dehydrogenase [2]; metal 0.8 mM) was 100%.

For `O.O.O.O.O.O.[Cl-].[Cl-].[Co+2]` [CoC1 · 6H2O], the “Relative activity (%)” value (L-sorbose dehydrogenase [2]; metal 0.4 mM) was 109.2% and the “Relative activity (%)” value (L-sorbose dehydrogenase [2]; metal 0.8 mM) was 118.4%.

In the case of `[Co+2]` [Co^2+], the “Effect of metal ion on the enzyme activity (in words)” value (from here on “Effect of metal ion”) (L-sorbose dehydrogenase [2]) is reported as “stimulative”.

`O.O=[N+]([O-])[O-].O=[N+]([O-])[O-].[Cu+2]` [Cu(NO3)2 · H2 O] was tested, and the “Relative activity (%)” value (L-sorbose dehydrogenase [2]; metal 0.3 mM) was 2.27%.

In the case of `O.O.[Cl][Cu][Cl]` [CuCl2 · 2H2 O], the “Relative activity (%)” value (L-sorbose dehydrogenase [2]; metal 0.4 mM) is reported as 0%.

With `O.O.O.O.O.O=S(=O)([O-])[O-].[Cu+2]` [CuSO4 · 5H2 O] the “Relative activity (%)” value (L-sorbose dehydrogenase [2]; metal 0.08 mM) was 30.9%.

With `O=S(=O)([O-])[O-].[Cu+2]` [CuSO4] the “Relative activity (%)” value (L-sorbose dehydrogenase [2]; metal 0.8 mM) was 0%.

With `[Cu+2]` [Cu^2+] the “Effect of metal ion” value (L-sorbose dehydrogenase [2]) was “inhibitory”.

`O=C(O)CN(CCN(CC(=O)O)CC(=O)O)CC(=O)O` [EDTA] showed an inhibition at 940 µM (L-sorbose dehydrogenase [3]) of 0% and an inhibition at 5200 µM (L-sorbose dehydrogenase [3]) of 13.3%.

In the case of `[Fe+3]` [Fe^3+], the “Effect of metal ion” value (L-sorbose dehydrogenase [2]) is reported as “stimulative”.

In the case of `O.O.O.O.O.O.[Cl-].[Cl-].[Mg+2]` [MgCl2 · 6H2 O], the “Relative activity (%)” value (L-sorbose dehydrogenase [2]; metal 0.8 mM) is reported as 83.3%.

`O.O.O.O.O.O.O.O=S(=O)([O-])[O-].[Mg+2]` [MgSO4 · 7H2 O] was tested, and the “Relative activity (%)” value (L-sorbose dehydrogenase [2]; metal 0.4 mM) was 100% and the “Relative activity (%)” value (L-sorbose dehydrogenase [2]; metal 0.8 mM) was 100%.

For `O.O.O.O.[Cl][Mn][Cl]` [MnCl2 · 4H2 O], the “Relative activity (%)” value (L-sorbose dehydrogenase [2]; metal 0.4 mM) was 100% and the “Relative activity (%)” value (L-sorbose dehydrogenase [2]; metal 0.9 mM) was 98.3%.

In the case of `O.O=S(=O)([O-])[O-].[Mn+2]` [MnSO4 · H2 O], the “Relative activity (%)” value (L-sorbose dehydrogenase [2]; metal 0.4 mM) is reported as 100%.

For `O=C(O)CI` [Mono-Iodo acetate], the inhibition at 1850 µM (L-sorbose dehydrogenase [3]) was 0%, the inhibition at 4240 µM (L-sorbose dehydrogenase [3]) was 34.6% and the inhibition at 9370 µM (L-sorbose dehydrogenase [3]) was 68.5%. The “Effect of inhibitor on the enzyme activity (in words)” value (“Effect of inhibitor” below) (L-sorbose dehydrogenase [3]) was “inhibited the enzyme activity partially”.

In the case of `CCN1C(=O)C=CC1=O` [N-Ethyl-maleimide], the inhibition at 1850 µM (L-sorbose dehydrogenase [3]) is reported as 0% and the inhibition at 4240 µM (L-sorbose dehydrogenase [3]) is reported as 0%.

In the case of `O.O.O.O.O.O.O.O=[As]([O-])([O-])O.[Na+].[Na+]` [Na2 HAs · O4 · 7H2 O], the “Inhibition (%)” value (L-sorbose dehydrogenase [3]; inhibitor 1.85 mM) is reported as 0% and the “Inhibition (%)” value (L-sorbose dehydrogenase [3]; inhibitor 4.24 mM) is reported as 0%.

`O.O.[Na+].[Na+].[O]=[Mo](=[O])([O-])[O-]` [Na2 MoO4 · 2H2 O] was tested, and the “Relative activity (%)” value (L-sorbose dehydrogenase [2]; metal 0.3 mM) was 86.1% and the “Relative activity (%)” value (L-sorbose dehydrogenase [2]; metal 1.06 mM) was 69.6%.

`O.O.O.O.O.O.O=S(=O)([O-])[O-].[Ni+2]` [NiSO4 · 6H2 O] was tested, and the “Relative activity (%)” value (L-sorbose dehydrogenase [2]; metal 0.4 mM) was 100% and the “Relative activity (%)” value (L-sorbose dehydrogenase [2]; metal 0.9 mM) was 100%.

With `O=C(O)c1cc[c]([Hg][Cl])cc1` [PCMB, p-chloro-mercuri-benzoate] the “Inhibition (%)” value (L-sorbose dehydrogenase [3]; inhibitor 0.02 mM) was 0%, the “Inhibition (%)” value (L-sorbose dehydrogenase [3]; inhibitor 0.04 mM) was 0% and the “Inhibition (%)” value (L-sorbose dehydrogenase [3]; inhibitor 0.17 mM) was 0%.

`C=C[C@H]1C[N@@]2CC[C@H]1C[C@H]2[C@H](O)c1ccnc2ccc(OC)cc12` [Quinine] was tested, and the inhibition at 1850 µM (L-sorbose dehydrogenase [3]) was 0%, the inhibition at 4240 µM (L-sorbose dehydrogenase [3]) was 30.5% and the “Effect of inhibitor” value (L-sorbose dehydrogenase [3]) was “inhibited the enzyme activity partially”.

`[N-]=[N+]=[N-]` [Sodium Azide] was tested, and the inhibition at 1850 µM (L-sorbose dehydrogenase [3]) was 0% and the inhibition at 4240 µM (L-sorbose dehydrogenase [3]) was 0%.

For `[F-].[Na+]` [Sodium Fluoride], the “Inhibition (%)” value (L-sorbose dehydrogenase [3]; inhibitor 1.85 mM) was 10.3%, the “Inhibition (%)” value (L-sorbose dehydrogenase [3]; inhibitor 4.24 mM) was 10.3% and the “Inhibition (%)” value (L-sorbose dehydrogenase [3]; inhibitor 9.37 mM) was 22.1%. The “Effect of inhibitor” value (L-sorbose dehydrogenase [3]) was “inhibited the enzyme activity partially”.

For `O=C(O)CF` [Sodium Fluoro acetate], the inhibition at 1850 µM (L-sorbose dehydrogenase [3]) was 0%, the inhibition at 4240 µM (L-sorbose dehydrogenase [3]) was 8.6% and the inhibition at 9370 µM (L-sorbose dehydrogenase [3]) was 26.5%. The “Effect of inhibitor” value (L-sorbose dehydrogenase [3]) was “inhibited the enzyme activity partially”.

With `O=C(CO)[C@@H](O)[C@H](O)[C@@H](O)CO` [Sorbose, L-sorbose] the “Substrate concentration of maximum reaction velocity” value (L-sorbose dehydrogenase [4]) was “about 200 mM”.

For `O.O.O.O.O.O.O.O=S(=O)([O-])[O-].[Zn+2]` [ZnSO4 · 7H2 O], the “Relative activity (%)” value (L-sorbose dehydrogenase [2]; metal 0.4 mM) was 100% and the “Relative activity (%)” value (L-sorbose dehydrogenase [2]; metal 0.9 mM) was 100%.

Fe(SO4)3 .multidot. xH2 O was tested, and the “Relative activity (%)” value (L-sorbose dehydrogenase [2]; metal 0.4 mM) was 121.3% and the “Relative activity (%)” value (L-sorbose dehydrogenase [2]; metal 0.9 mM) was 106.4%.

In the case of TiCl, the “Relative activity (%)” value (L-sorbose dehydrogenase [2]; metal 0.4 mM) is reported as 100%, the “Relative activity (%)” value (L-sorbose dehydrogenase [2]; metal 0.8 mM) is reported as 100% and the “Relative activity (%)” value (L-sorbose dehydrogenase [2]; metal 1.8 mM) is reported as 100%.
